Experimental data reported in patent US11279733B2, “Peptide antibiotics” (priority 2017, dated 2022).
Converted amounts (≈) assume the structure as drawn. Positions of bridges follow the written chain, without caps; N, C: chain ends. Non-standard residues stand in square brackets, D forms with d. Residues, ends and D or L forms follow the SMILES beside them. *: point of attachment. Decanoyl(3R-OH) = CCCCCCC[C@@H](O)CC(=O)*; dBip = N[C@H](Cc1ccc(-c2ccccc2)cc1)C(=O)O; 2Nal = N[C@@H](Cc1ccc2ccccc2c1)C(=O)O; dIgl = N[C@@H](C(=O)O)C1Cc2ccccc2C1; Igl = N[C@H](C(=O)O)C1Cc2ccccc2C1; Tle = CC(C)(C)[C@H](N)C(=O)O; dDab = NCC[C@@H](N)C(=O)O; Octanoyl = CCCCCCCC(=O)*; dDap = NC[C@@H](N)C(=O)O; Dab = NCC[C@H](N)C(=O)O

What was measured:
in vitro = conditions: for CC50 at 24 h: human
Summary of the method: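 Cells (4000/well, pre-attached 24 h) then received 5 μM resazurin for 2 h, with fluorescence measured at ex 560/em 590.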

[1] = test system: K. pneumoniae ATCC 700603, MDR; conditions: ATCC 700603
Summary of the method: (§1)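 Mid-log cultures grown in Mueller Hinton broth at 37° C were tested by 2-fold broth microdilution at 5×10^5 CFU/mL final. Compounds were dissolved in water and tested over a final range of 32 to 0.015 μg/mL.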

[2] = test system: K. pneumoniae ATCC BAA-2146, NDM-1 pos; conditions: ATCC BAA-2146
Summary of the method: as §1

A. baumannii GN_093 PmxR = conditions: GN 093 PmxR
Summary of the method: as §1

[3] = test system: P. aeruginosa GN_043, PmxR; conditions: polymyxin-resistant
Summary of the method: as §1

[4] = test system: K. pneumoniae GN_102 PmxR; conditions: GN 102 PmxR
Summary of the method: as §1

E. coli ATCC 25922 = conditions: ATCC 25922
Summary of the method: as §1

[5] = test system: K. pneumoniae GN_106, PmxR; conditions: GN 106, PmxR
Summary of the method: as §1

K. pneumoniae ATCC 13883 = conditions: ATCC 13883
Summary of the method: as §1

[6] = test system: P. aeruginosa GN_105, PmxR; conditions: GN 105, PmxR
Summary of the method: as §1

[7] = test system: S. aureus ATCC 25923, MSSA; conditions: ATCC 25923
Summary of the method: as §1

A. baumannii ATCC 19606 = conditions: ATCC 19606
Summary of the method: as §1

P. aeruginosa ATCC 27853 = conditions: ATCC 27853
Summary of the method: as §1

Structure (SMILES) | CC50 at 24 h (in vitro) | MIC K. pneumoniae ATCC 700603, MDR [1] | MIC K. pneumoniae ATCC BAA-2146, NDM-1 pos [2] | MIC A. baumannii GN_093 PmxR (A. baumannii GN_093 PmxR) | MIC P. aeruginosa GN_043, PmxR [3] | MIC K. pneumoniae GN_102 PmxR [4] | MIC E. coli ATCC 25922 (E. coli ATCC 25922) | MIC K. pneumoniae GN_106, PmxR [5] | MIC K. pneumoniae ATCC 13883 (K. pneumoniae ATCC 13883) | MIC P. aeruginosa GN_105, PmxR [6] | MIC S. aureus ATCC 25923, MSSA [7] | MIC A. baumannii ATCC 19606 (A. baumannii ATCC 19606) | MIC P. aeruginosa ATCC 27853 (P. aeruginosa ATCC 27853) | CC50 (in vitro)
CCCCCCC[C@@H](O)CC(=O)N[C@H](CCN)C(=O)N[C@H]1CCNC(=O)[C@H](Cc2c[nH]c3ccccc23)NC(=O)[C@H](CCN)NC(=O)[C@H](CCN)NC(=O)[C@H](Cc2ccc3ccccc3c2)NC(=O)[C@@H](Cc2ccccc2)NC(=O)[C@H](CCN)NC1=O [compound 8832, nC10-3(R)OH-D-Dab-cyc[L-Dab-L-Dab-D-Phe-L-2-NaphthylAla-L-Dab-L-Dab-L-Trp]] ({Decanoyl(3R-OH)}-[dDab][Dab][Dab][dF][2Nal][Dab][Dab]W; lactam 2-C) | 26 µM | 8 µg/mL (≈ 6.66 µM) | 8 µg/mL (≈ 6.66 µM) | 16 µg/mL (≈ 13.3 µM) | 4 µg/mL (≈ 3.33 µM) | 16 µg/mL (≈ 13.3 µM) | 8 µg/mL (≈ 6.66 µM) | 8 µg/mL (≈ 6.66 µM) | 16 µg/mL (≈ 13.3 µM) | 8 µg/mL (≈ 6.66 µM) | 4 µg/mL (≈ 3.33 µM) | 8 µg/mL (≈ 6.66 µM) | 4 µg/mL (≈ 3.33 µM) | –
CCCCCCC[C@@H](O)CC(=O)N[C@H](CCCNC(=N)N)C(=O)N[C@H]1CCNC(=O)[C@H](Cc2c[nH]c3ccccc23)NC(=O)[C@H](CCN)NC(=O)[C@H](CCN)NC(=O)[C@H](CC(C)C)NC(=O)[C@@H](Cc2ccccc2)NC(=O)[C@H](CCN)NC1=O [compound 8884, nC10-3(R)OH-D-Arg-cyc[L-Dab-L-Dab-D-Phe-L-Leu-L-Dab-L-Dab-L-Trp]] ({Decanoyl(3R-OH)}-[dR][Dab][Dab][dF]L[Dab][Dab]W; lactam 2-C) | 73 µM | 4 µg/mL (≈ 3.41 µM) | 8 µg/mL (≈ 6.82 µM) | 32 µg/mL (≈ 27.3 µM) | 4 µg/mL (≈ 3.41 µM) | 32 µg/mL (≈ 27.3 µM) | 4 µg/mL (≈ 3.41 µM) | 16 µg/mL (≈ 13.6 µM) | 16 µg/mL (≈ 13.6 µM) | 16 µg/mL (≈ 13.6 µM) | 16 µg/mL (≈ 13.6 µM) | 32 µg/mL (≈ 27.3 µM) | 4 µg/mL (≈ 3.41 µM) | –
CCCCCCCC(=O)N[C@H](CN)C(=O)N[C@H]1CCNC(=O)[C@H](Cc2c[nH]c3ccccc23)NC(=O)[C@H](CCN)NC(=O)[C@H](CCN)NC(=O)[C@H](CC(C)C)NC(=O)[C@@H](Cc2ccccc2)NC(=O)[C@H](CCN)NC1=O [compound 8887, nC7CO-D-Dap-cyc[L-Dab-L-Dab-D-Phe-L-Leu-L-Dab-L-Dab-L-Trp]] (Octanoyl-[dDap][Dab][Dab][dF]L[Dab][Dab]W; lactam 2-C) | 190 µM | 4 µg/mL (≈ 3.78 µM) | 8 µg/mL (≈ 7.55 µM) | >32 µg/mL | 2 µg/mL (≈ 1.89 µM) | 32 µg/mL (≈ 30.2 µM) | 8 µg/mL (≈ 7.55 µM) | 16 µg/mL (≈ 15.1 µM) | 16 µg/mL (≈ 15.1 µM) | 8 µg/mL (≈ 7.55 µM) | 8 µg/mL (≈ 7.55 µM) | 32 µg/mL (≈ 30.2 µM) | 2 µg/mL (≈ 1.89 µM) | –
CCCCCCC[C@@H](O)CC(=O)N[C@H](CN)C(=O)N[C@H]1CCNC(=O)[C@H](Cc2c[nH]c3ccccc23)NC(=O)[C@H](CCCNC(=N)N)NC(=O)[C@H](CCCCN)NC(=O)[C@H](C2Cc3ccccc3C2)NC(=O)[C@@H](Cc2ccccc2)NC(=O)[C@H](CCN)NC1=O [compound 8888, 3(R)OH-nC9CO-D-Dap-cyc[L-Dab-L-Dab-D-Phe-L-indanylgly-L-Lys-L-Arg-L-Trp]] ({Decanoyl(3R-OH)}-[dDap][Dab][Dab][dF][Igl]KRW; lactam 2-C) | – | 2 µg/mL (≈ 1.6 µM) | 2 µg/mL (≈ 1.6 µM) | 8 µg/mL (≈ 6.41 µM) | 4 µg/mL (≈ 3.21 µM) | 4 µg/mL (≈ 3.21 µM) | 2 µg/mL (≈ 1.6 µM) | 4 µg/mL (≈ 3.21 µM) | 4 µg/mL (≈ 3.21 µM) | 2 µg/mL (≈ 1.6 µM) | 2 µg/mL (≈ 1.6 µM) | 4 µg/mL (≈ 3.21 µM) | 4 µg/mL (≈ 3.21 µM) | 67 µM
CCCCCCC[C@@H](O)CC(=O)N[C@H](CN)C(=O)N[C@H]1CCNC(=O)[C@H](Cc2c[nH]c3ccccc23)NC(=O)[C@H](CCCCN)NC(=O)[C@H](CCCNC(=N)N)NC(=O)[C@H](C2Cc3ccccc3C2)NC(=O)[C@@H](Cc2ccccc2)NC(=O)[C@H](CCN)NC1=O [compound 8890, 3(R)OH-nC9CO-D-Dap-cyc[L-Dab-L-Dab-D-Phe-L-indanylgly-L-Arg-L-Lys-L-Trp]] ({Decanoyl(3R-OH)}-[dDap][Dab][Dab][dF][Igl]RKW; lactam 2-C) | 67 µM | 2 µg/mL (≈ 1.6 µM) | 4 µg/mL (≈ 3.21 µM) | 8 µg/mL (≈ 6.41 µM) | 4 µg/mL (≈ 3.21 µM) | 4 µg/mL (≈ 3.21 µM) | 2 µg/mL (≈ 1.6 µM) | 4 µg/mL (≈ 3.21 µM) | 2 µg/mL (≈ 1.6 µM) | 2 µg/mL (≈ 1.6 µM) | 2 µg/mL (≈ 1.6 µM) | 8 µg/mL (≈ 6.41 µM) | 4 µg/mL (≈ 3.21 µM) | –
CCCCCCC[C@@H](O)CC(=O)N[C@H](CN)C(=O)N[C@H]1CCNC(=O)[C@H](Cc2c[nH]c3ccccc23)NC(=O)[C@H](CCCNC(=N)N)NC(=O)[C@H](CCCCN)NC(=O)[C@H](C(C)(C)C)NC(=O)[C@@H](Cc2ccc(-c3ccccc3)cc2)NC(=O)[C@H](CCN)NC1=O [compound 8892, 3(R)OH-nC9CO-D-Dap-cyc[L-Dab-L-Dab-D-Bip-L-tert-Leu-L-Lys-L-Arg-L-Trp]] ({Decanoyl(3R-OH)}-[dDap][Dab][Dab][dBip][Tle]KRW; lactam 2-C) | > 300 µM | 4 µg/mL (≈ 3.17 µM) | 4 µg/mL (≈ 3.17 µM) | 8 µg/mL (≈ 6.33 µM) | 4 µg/mL (≈ 3.17 µM) | 8 µg/mL (≈ 6.33 µM) | 4 µg/mL (≈ 3.17 µM) | 8 µg/mL (≈ 6.33 µM) | 8 µg/mL (≈ 6.33 µM) | 4 µg/mL (≈ 3.17 µM) | 4 µg/mL (≈ 3.17 µM) | 8 µg/mL (≈ 6.33 µM) | 8 µg/mL (≈ 6.33 µM) | –
CCCCCCC[C@@H](O)CC(=O)N[C@H](CN)C(=O)N[C@H]1CCNC(=O)[C@H](Cc2c[nH]c3ccccc23)NC(=O)[C@H](CCCNC(=N)N)NC(=O)[C@H](CCCCN)NC(=O)[C@H](CC(C)C)NC(=O)[C@@H](C2Cc3ccccc3C2)NC(=O)[C@H](CCN)NC1=O [compound 8896, 3(R)OH-nC9CO-D-Dap-cyc[L-Dab-L-Dab-D-indanylgly-L-Leu-L-Lys-L-Arg-L-Trp]] ({Decanoyl(3R-OH)}-[dDap][Dab][Dab][dIgl]LKRW; lactam 2-C) | 102 µM | 2 µg/mL (≈ 1.65 µM) | 2 µg/mL (≈ 1.65 µM) | 16 µg/mL (≈ 13.2 µM) | 4 µg/mL (≈ 3.3 µM) | 16 µg/mL (≈ 13.2 µM) | 2 µg/mL (≈ 1.65 µM) | 4 µg/mL (≈ 3.3 µM) | 8 µg/mL (≈ 6.59 µM) | 2 µg/mL (≈ 1.65 µM) | 2 µg/mL (≈ 1.65 µM) | 8 µg/mL (≈ 6.59 µM) | 4 µg/mL (≈ 3.3 µM) | –
